Data: article PMC13534789, “Molecular Glue Degraders Enhance CAPRIN1‐Dependent Lysosomal Degradation of APP and Reduce Amyloid β in Alzheimer's Disease” (Advanced Science, 2026)

What was measured:
Aβ42 = Aβ42 ELISA of conditioned media, HEK-APP695WT cells; assay type: cell-based, human; conditions: 72 h
Description: iPSC‐Ns or HEK‐APP695WT were treated with drugs, and secreted Aβ42 peptides inculture soup were quantified using the Human Amyloid β1‐42 human ELISA kit (Thermo Fisher) according to the manufacturer's protocol. Mouse brain extraction was performed as previously described, with minor modifications. Mouse brain tissues were homogenized at a 1:10 weight‐to‐volume ratio in Tris‐buffered saline (TBS; 50 mM Tris, pH 7.4, 150 mM NaCl) supplemented with 2 mM EDTA and protease inhibitors. TBS‐homogenized brains were centrifuged for 1 h at 16 000 g. To extract total Aβ, including insoluble fractions, formic acid was added to a final concentration of 70%, and the samples were thoroughly mixed by pipetting. […] Prior to quantification, formic acid‐containing samples were neutralized with 1 M Tris base (pH 11). Aβ40 and Aβ42 levels were measured using human‐specific ELISA kits (Invitrogen) and normalized to total protein concentrations determined by the BCA assay (Thermo Scientific). For Aβ quantification in 3D organoids, 3D organoids’ processing and ELISA analysis were performed with minor modifications from previously described protocols. […] Aβ42 levels in both fractions were measured using human‐specific ELISA kits (Thermo Fisher) according to the manufacturer's instructions. […] Aβ levels were normalized to total protein concentration determined by BCA assay.

[1] = system: CAPRIN1, G3BP1, BACE1, ADAM10, PSEN1, nicastrin, GGA1, Sorla, neprilysin; assay: Western blot of CAPRIN1, G3BP1 and other AD-related proteins; assay type: cell-based, human; conditions: 10 µM

With `N#Cc1cccc(NC(=O)Nc2nc3ccc(C(=O)N4CCOCC4)cc3s2)c1` [compound 0043] the “Aβ42 in conditioned media” value (Aβ42; 10 µM) was “most potent in reducing Aβ42”, the “Extracellular Aβ42 (ELISA)” value (Aβ42; increasing concentrations) was “reduced intracellular APP and extracellular Aβ42 levels in a dose‐dependent manner” and the “CAPRIN1 and G3BP1 protein levels” value ([1]; HEK-APP695WT cells, 12–72 h) was “no effect”. For the same molecule, the “Levels of other AD-related proteins (BACE1, ADAM10, PSEN1, nicastrin, GGA1, Sorla, neprilysin)” value ([1]; SAD2.3-Ns, 72 h) was “did not affect levels”.
